Reference: patent US20230348376A1 (TEIJIN PHARMA LIMITED, priority 2020, published 2023)

Tested on: rat oligodendrocyte progenitor cells
Assay: Promotive activity of rat oligodendrocyte progenitor cell differentiation-2 (immunostaining of MBP)
Format: cell-based
Conditions: vitamin D derivative 2 μM, T3 30 nM, 4 days
Method: The promotive activity of oligodendrocyte progenitor cell (OPC) differentiation of the vitamin D derivatives was evaluated by immunostaining of MBP.
Subsequently, oligodendrocyte progenitor cell separation medium was added to the flask, and the mixture was similarly shaken for about 22 hours (37° C., 200 rpm), and the supernatant was collected to prepare oligodendrocyte progenitor cells.

## C[C@H](CN1CCCCC1(C)C)[C@H]1CC[C@H]2/C(=C/C=C3C[C@@H](O)C[C@H](O)C3)CCC[C@]12C [Compound G003, (1R,3R)-5-(2-((1R,3aS,7aR,E)-1-((S)-1-(2,2-dimethylpiperidin-1-yl)propan-2-yl)-7a-methyloctahydro-4H-inden-4-ylidene)ethylidene)cyclohexane-1,3-diol]
Test 3
  Mean (number of MBP-positive cells/number of Hoechst33342-positive cells): 0.47

## C[C@H](CN1CCOCC12CC2)[C@H]1CC[C@H]2/C(=C/C=C3C[C@@H](O)C[C@H](O)C3)CCC[C@]12C [Compound G007, (1R,3R)-5-(2-((1R,3aS,7aR,E)-1-((S)-1-(7-oxa-4-azaspiro[2.5]octan-4-yl)propan-2-yl)-7a-methyloctahydro-4H-inden-4-ylidene)ethylidene)cyclohexane-1,3-diol]
Test 4
  Mean (number of MBP-positive cells/number of Hoechst33342-positive cells): 0.34

## C[C@H](CN1CCOC[C@@H]1C1CC1)[C@H]1CC[C@H]2/C(=C/C=C3C[C@@H](O)C[C@H](O)C3)CCC[C@]12C [Compound G008, (1R,3R)-5-(2-((1R,3aS,7aR,E)-1-((S)-1-((S)-3-cyclopropylmorpholino)propan-2-yl)-7a-methyloctahydro-4H-inden-4-ylidene)ethylidene)cyclohexane-1,3-diol]
Test 5
  Mean (number of MBP-positive cells/number of Hoechst33342-positive cells): 0.36

## C[C@H](CN1CCN(C)C[C@@H]1C)[C@H]1CC[C@H]2/C(=C/C=C3C[C@@H](O)C[C@H](O)C3)CCC[C@]12C [Compound G011, (1R,3R)-5-(2-((1R,3aS,7aR,E)-1-((S)-1-((S)-2,4-dimethylpiperazin-1-yl)propan-2-yl)-7a-methyloctahydro-4H-inden-4-ylidene)ethylidene)cyclohexane-1,3-diol]
Test 5
  Mean (number of MBP-positive cells/number of Hoechst33342-positive cells): 0.22

## C[C@H](CN1CCN(C)C[C@H]1C)[C@H]1CC[C@H]2/C(=C/C=C3C[C@@H](O)C[C@H](O)C3)CCC[C@]12C [Compound G012, (1R,3R)-5-(2-((1R,3aS,7aR,E)-1-((S)-1-((R)-2,4-dimethylpiperazin-1-yl)propan-2-yl)-7a-methyloctahydro-4H-inden-4-ylidene)ethylidene)cyclohexane-1,3-diol]
Test 5
  Mean (number of MBP-positive cells/number of Hoechst33342-positive cells): 0.22

## C[C@H](CN1CCC[C@@H]1C(C)(C)O)[C@H]1CC[C@H]2/C(=C/C=C3C[C@@H](O)C[C@H](O)C3)CCC[C@]12C [Compound G013, (1R,3R)-5-(2-((1R,3aS,7aR,E)-1-((S)-1-((R)-2-(2-hydroxypropan-2-yl)pyrrolidin-1-yl)propan-2-yl)-7a-methyloctahydro-4H-inden-4-ylidene)ethylidene)cyclohexane-1,3-diol]
Test 6
  Mean (number of MBP-positive cells/number of Hoechst33342-positive cells): 0.55

## C[C@H](CN1CCC[C@H]1C(C)(C)O)[C@H]1CC[C@H]2/C(=C/C=C3C[C@@H](O)C[C@H](O)C3)CCC[C@]12C [Compound G014, (1R,3R)-5-(2-((1R,3aS,7aR,E)-1-((S)-1-((S)-2-(2-hydroxypropan-2-yl)pyrrolidin-1-yl)propan-2-yl)-7a-methyloctahydro-4H-inden-4-ylidene)ethylidene)cyclohexane-1,3-diol]
Test 6
  Mean (number of MBP-positive cells/number of Hoechst33342-positive cells): 0.44

## COC(C)(C)[C@H]1CCCN1C[C@@H](C)[C@H]1CC[C@H]2/C(=C/C=C3C[C@@H](O)C[C@H](O)C3)CCC[C@]12C [Compound G015, (1R,3R)-5-(2-((1R,3aS,7aR,E)-1-((S)-1-((R)-2-(2-methoxypropan-2-yl)pyrrolidin-1-yl)propan-2-yl)-7a-methyloctahydro-4H-inden-4-ylidene)ethylidene)cyclohexane-1,3-diol]
Test 6
  Mean (number of MBP-positive cells/number of Hoechst33342-positive cells): 0.52

## COC(C)(C)[C@@H]1CCCN1C[C@@H](C)[C@H]1CC[C@H]2/C(=C/C=C3C[C@@H](O)C[C@H](O)C3)CCC[C@]12C [Compound G016, (1R,3R)-5-(2-((1R,3aS,7aR,E)-1-((S)-1-((S)-2-(2-methoxypropan-2-yl)pyrrolidin-1-yl)propan-2-yl)-7a-methyloctahydro-4H-inden-4-ylidene)ethylidene)cyclohexane-1,3-diol]
Test 7
  Mean (number of MBP-positive cells/number of Hoechst33342-positive cells): 0.37

## C[C@H](CCN1CCCC[C@@H]1C)[C@H]1CC[C@H]2/C(=C/C=C3C[C@@H](O)C[C@H](O)C3)CCC[C@]12C [Compound G017, (1R,3R)-5-(2-((1R,3aS,7aR,E)-7a-methyl-1-((R)-4-((S)-2-methylpiperidin-1-yl)butan-2-yl)octahydro-4H-inden-4-ylidene)ethylidene)cyclohexane-1,3-diol]
Test 6
  Mean (number of MBP-positive cells/number of Hoechst33342-positive cells): 0.52

## C[C@H](CCN1CCCC[C@H]1C)[C@H]1CC[C@H]2/C(=C/C=C3C[C@@H](O)C[C@H](O)C3)CCC[C@]12C [Compound G018, (1R,3R)-5-(2-((1R,3aS,7aR,E)-7a-methyl-1-((R)-4-((R)-2-methylpiperidin-1-yl)butan-2-yl)octahydro-4H-inden-4-ylidene)ethylidene)cyclohexane-1,3-diol]
Test 6
  Mean (number of MBP-positive cells/number of Hoechst33342-positive cells): 0.48

## C=C1[C@H](O)CC(=C/C=C2\CCC[C@]3(C)[C@@H]([C@H](C)CN4CCCC[C@@H]4C)CC[C@@H]23)C[C@H]1O [Compound H001, (1R,3R)-5-(2-((1R,3aS,7aR,E)-7a-methyl-1-((S)-1-((S)-2-methylpiperidin-1-yl)propan-2-yl)octahydro-4H-inden-4-ylidene)ethylidene)-2-methylenecyclohexane-1,3-diol]
Test 7
  Mean (number of MBP-positive cells/number of Hoechst33342-positive cells): 0.48

## C=C1[C@H](O)CC(=C/C=C2\CCC[C@]3(C)[C@@H]([C@H](C)CN4CCCC[C@H]4C)CC[C@@H]23)C[C@H]1O [Compound H002, (1R,3R)-5-(2-((1R,3aS,7aR,E)-7a-methyl-1-((S)-1-((R)-2-methylpiperidin-1-yl)propan-2-yl)octahydro-4H-inden-4-ylidene)ethylidene)-2-methylenecyclohexane-1,3-diol]
Test 9
  Mean (number of MBP-positive cells/number of Hoechst33342-positive cells): 0.39

## C=C1[C@H](O)CC(=C/C=C2\CCC[C@]3(C)[C@@H]([C@H](C)CN4CCCCC4(C)C)CC[C@@H]23)C[C@H]1O [Compound H003, (1R,3R)-5-(2-((1R,3aS,7aR,E)-1-((S)-1-(2,2-dimethylpiperidin-1-yl)propan-2-yl)-7a-methyloctahydro-4H-inden-4-ylidene)ethylidene)-2-methylenecyclohexane-1,3-diol]
Test 9
  Mean (number of MBP-positive cells/number of Hoechst33342-positive cells): 0.30

## C=C1[C@H](O)CC(=C/C=C2\CCC[C@]3(C)[C@@H]([C@H](C)CN4CCN(C)C[C@@H]4C)CC[C@@H]23)C[C@H]1O [Compound H011, (1R,3R)-5-(2-((1R,3aS,7aR,E)-1-((S)-1-((S)-2,4-dimethylpiperazin-1-yl)propan-2-yl)-7a-methyloctahydro-4H-inden-4-ylidene)ethylidene)-2-methylenecyclohexane-1,3-diol]
Test 5
  Mean (number of MBP-positive cells/number of Hoechst33342-positive cells): 0.30

## C=C1[C@H](O)CC(=C/C=C2\CCC[C@]3(C)[C@@H]([C@H](C)CN4CCN(C)C[C@H]4C)CC[C@@H]23)C[C@H]1O [Compound H012, (1R,3R)-5-(2-((1R,3aS,7aR,E)-1-((S)-1-((R)-2,4-dimethylpiperazin-1-yl)propan-2-yl)-7a-methyloctahydro-4H-inden-4-ylidene)ethylidene)-2-methylenecyclohexane-1,3-diol]
Test 7
  Mean (number of MBP-positive cells/number of Hoechst33342-positive cells): 0.28

## C=C1[C@H](O)CC(=C/C=C2\CCC[C@]3(C)[C@@H]([C@H](C)CN4CCC[C@@H]4C(C)(C)O)CC[C@@H]23)C[C@H]1O [Compound H013, (1R,3R)-5-(2-((1R,3aS,7aR,E)-1-((S)-1-((R)-2-(2-hydroxypropan-2-yl)pyrrolidin-1-yl)propan-2-yl)-7a-methyloctahydro-4H-inden-4-ylidene)ethylidene)-2-methylenecyclohexane-1,3-diol]
Test 8
  Mean (number of MBP-positive cells/number of Hoechst33342-positive cells): 0.35

## C=C1[C@H](O)CC(=C/C=C2\CCC[C@]3(C)[C@@H]([C@H](C)CN4CCC[C@H]4C(C)(C)O)CC[C@@H]23)C[C@H]1O [Compound H014, (1R,3R)-5-(2-((1R,3aS,7aR,E)-1-((S)-1-((S)-2-(2-hydroxypropan-2-yl)pyrrolidin-1-yl)propan-2-yl)-7a-methyloctahydro-4H-inden-4-ylidene)ethylidene)-2-methylenecyclohexane-1,3-diol]
Test 8
  Mean (number of MBP-positive cells/number of Hoechst33342-positive cells): 0.37

## C=C1[C@H](O)CC(=C/C=C2\CCC[C@]3(C)[C@@H]([C@H](C)CN4CCC[C@@H]4C(C)(C)OC)CC[C@@H]23)C[C@H]1O [Compound H015, (1R,3R)-5-(2-((1R,3aS,7aR,E)-1-((S)-1-((R)-2-(2-methoxypropan-2-yl)pyrrolidin-1-yl)propan-2-yl)-7a-methyloctahydro-4H-inden-4-ylidene)ethylidene)-2-methylenecyclohexane-1,3-diol]
Test 8
  Mean (number of MBP-positive cells/number of Hoechst33342-positive cells): 0.34

## C=C1[C@H](O)CC(=C/C=C2\CCC[C@]3(C)[C@@H]([C@H](C)CN4CCC[C@H]4C(C)(C)OC)CC[C@@H]23)C[C@H]1O [Compound H016, (1R,3R)-5-(2-((1R,3aS,7aR,E)-1-((S)-1-((S)-2-(2-methoxypropan-2-yl)pyrrolidin-1-yl)propan-2-yl)-7a-methyloctahydro-4H-inden-4-ylidene)ethylidene)-2-methylenecyclohexane-1,3-diol]
Test 8
  Mean (number of MBP-positive cells/number of Hoechst33342-positive cells): 0.30

## C=C1/C(=C\C=C2/CCC[C@]3(C)[C@@H]([C@H](C)CN4CCCC[C@@H]4C)CC[C@@H]23)C[C@@H](O)C[C@H]1O [Compound I001, (1R,3R,Z)-5-(2-((1R,3aS,7aR,E)-7a-methyl-1-((S)-1-((S)-2-methylpiperidin-1-yl)propan-2-yl)octahydro-4H-inden-4-ylidene)ethylidene)-4-methylenecyclohexane-1,3-diol]
Test 9
  Mean (number of MBP-positive cells/number of Hoechst33342-positive cells): 0.30
